Like-named read-outs stand apart in the source and are kept apart here.
How the values were obtained:
Type in all cases: in vivo
[1] = test system: Amaranthus retroflexus (AMARE); experiment: Pre-emergence herbicidal action against AMARE; settings: visual scoring after about 3 weeks vs untreated controls
Summary of the method: (§1)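 Greenhouse pot trial: seeds sown, soil-covered, sprayed before emergence with compound in water (0.5% additive; 600 l/ha; ≤320 g/ha). Scoring visual, ~3 weeks, 0–100% scale vs untreated.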

Avena fatua (AVEFA) [2] = experiment: Pre-emergence herbicidal action against AVEFA; settings: visual scoring after about 3 weeks vs untreated controls
Summary of the method: as §1

[3] = test system: Echinochloa crus-galli (ECHCG); experiment: Pre-emergence herbicidal action against ECHCG; settings: dosage 320 g/ha
Summary of the method: as §1

[4] = test system: Matricaria inodora (MATIN); experiment: Pre-emergence herbicidal action against MATIN; settings: dosage 320 g/ha
Summary of the method: as §1

[5] = test system: Polygonum convolvulus (POLCO); experiment: Pre-emergence herbicidal action against POLCO
Summary of the method: as §1

Setaria viridis (SETVI) [6] = experiment: Pre-emergence herbicidal action against SETVI; settings: dosage 320 g/ha
Summary of the method: as §1

[7] = test system: Verconica persica (VERPE); experiment: Pre-emergence herbicidal action against VERPE; settings: dosage 320 g/ha
Summary of the method: as §1

Brassica napus (BRSNW) = settings: 80 g/ha, crop plant compatibility, in comparison to untreated controls
Summary of the method: (§2)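 Scoring: visual, % of untreated control, about 3 weeks after a pre-emergence application to the soil surface. Application used WP or EC formulations diluted in water with 0.5% additive at 600 l/ha; dosage levels are marked by suffixes a, b and c.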

Oryza sativa (ORYSA) [8] = settings: pre-emergence, 80 g/ha, crop plant compatibility, in comparison to untreated controls
Summary of the method: as §2

[9] = test system: Amaranthus retroflexus (AMARE); experiment: Post-emergence herbicidal action against AMARE
Summary of the method: (§3)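 Values are percent visual activity (0% like control, 100% plants dead) after about 3 weeks in the greenhouse. Treatment: post-emergence spray at one-leaf stage, 600 l/ha spray volume, 0.5% additive, doses 320 g/ha or lower.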

[10] = test system: Echinochloa crus-galli (ECHCG); experiment: Post-emergence herbicidal action against ECHCG
Summary of the method: as §3

Lolium rigidum (LOLRI) [11] = experiment: Post-emergence herbicidal action against LOLRI
Summary of the method: as §3

[12] = test system: Pharbitis purpurea (PHBPU); experiment: Post-emergence herbicidal action against PHBPU; settings: dosage 320 g/ha
Summary of the method: as §3

[13] = test system: Polygonum convolvulus (POLCO); experiment: Post-emergence herbicidal action against POLCO; settings: dosage 320 g/ha
Summary of the method: as §3

Setaria viridis (SETVI) [14] = experiment: Post-emergence herbicidal action against SETVI; settings: dosage 320 g/ha
Summary of the method: as §3

[15] = test system: Verconica persica (VERPE); experiment: Post-emergence herbicidal action against VERPE
Summary of the method: as §3

Oryza sativa (ORYSA) [16] = settings: crop plant compatibility
Summary of the method: (§4)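 One-leaf-stage crops (2–3 wk post-sowing, sandy loam, greenhouse) sprayed on green parts; 0.5% additive, 600 l/ha water. Rated by eye ~3 wk later, % vs untreated; suffixes a/b/c mark different dosages.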

[17] = test system: Triticum aestivum (TRZAS); settings: crop plant compatibility, effect vs untreated controls
Summary of the method: as §4

Zea mays (ZEAMX) [18] = settings: for Post-emergence action against ZEAMX in %: crop plant compatibility, 80 g/ha, effect vs untreated controls
Summary of the method: as §4

[19] = test system: Digitaria sanguinalis (DIGSA); experiment: Pre-emergence herbicidal action against DIGSA
Summary of the method: as §1

Lolium rigidum (LOLRI) [20] = experiment: Pre-emergence herbicidal action against LOLRI
Summary of the method: as §1

[21] = test system: Pharbitis purpurea (PHBPU); experiment: Pre-emergence herbicidal action against PHBPU; settings: dosage 320 g/ha
Summary of the method: as §1

Viola tricolor (VIOTR) [22] = experiment: Pre-emergence herbicidal action against VIOTR
Summary of the method: as §1

Zea mays (ZEAMX) [23] = settings: pre-emergence, 80 g/ha, crop plant compatibility, in comparison to untreated controls
Summary of the method: as §2

[24] = test system: Alopecurus myosuroides (ALOMY); experiment: Post-emergence herbicidal action against ALOMY; settings: visual rating about 3 weeks after treatment vs untreated controls (100% = plants have died, 0% = like control plants)
Summary of the method: as §3

[25] = test system: Digitaria sanguinalis (DIGSA); experiment: Post-emergence herbicidal action against DIGSA; settings: 320 g/ha, visual rating about 3 weeks after treatment
Summary of the method: as §3

[26] = test system: Matricaria inodora (MATIN); experiment: Post-emergence herbicidal action against MATIN; settings: dosage 320 g/ha
Summary of the method: as §3

Viola tricolor (VIOTR) [27] = experiment: Post-emergence herbicidal action against VIOTR
Summary of the method: as §3

[28] = test system: Alopecurus myosuroides (ALOMY); experiment: Pre-emergence herbicidal action against ALOMY; settings: scored visually after about 3 weeks, 100% = plants have died
Summary of the method: as §1

Avena fatua (AVEFA) [29] = experiment: Post-emergence herbicidal action against AVEFA; settings: 80 g/ha, visual rating about 3 weeks after treatment
Summary of the method: as §3

[30] = 320 g/ha, visual rating about 3 weeks after treatment
[31] = 80 g/ha, effect in comparison to untreated controls

Row | Pre-emergence action against BRSNW in % (Brassica napus (BRSNW)) [%] | Pre-emergence action against ORYSA in % (Oryza sativa (ORYSA) [8]) [%] | Post-emergence action against ORYSA in % (Oryza sativa (ORYSA) [16]; [31]) [%] | Post-emergence action against ZEAMX in % (Zea mays (ZEAMX) [18]) [%] | Pre-emergence action against ZEAMX in % (Zea mays (ZEAMX) [23]) [%] | Compound | Pre-emergence action against AMARE in % ([1]; 320 g/ha) [%] | Pre-emergence action against AVEFA in % (Avena fatua (AVEFA) [2]; 320 g/ha) [%] | Pre-emergence action against ECHCG in % [3] [%] | Pre-emergence action against MATIN in % [4] [%] | Pre-emergence action against POLCO in % ([5]; dosage 80 g/ha) [%] | Pre-emergence action against POLCO in % ([5]; dosage 320 g/ha) [%] | Pre-emergence action against SETVI in % (Setaria viridis (SETVI) [6]) [%] | Pre-emergence action against VERPE in % [7] [%] | Post-emergence action against AMARE in % [9, 30] [%] | Post-emergence action against ECHCG in % ([10]; dosage 320 g/ha) [%] | Post-emergence action against LOLRI in % (Lolium rigidum (LOLRI) [11]; dosage 320 g/ha) [%] | Post-emergence action against PHBPU in % [12] [%] | Post-emergence action against VERPE in % ([15]; 320 g/ha, VERPE) [%] | Pre-emergence action against LOLRI in % (Lolium rigidum (LOLRI) [20]; dosage 320 g/ha) [%] | Pre-emergence action against VIOTR in % (Viola tricolor (VIOTR) [22]; 320 g/ha, Viola tricolor) [%] | also measured
1 | 20 | 20 | 0 | 10 |  | Cc1cccc(-n2nc(OCC(=O)O)c(Cl)c2-c2ccc(F)nc2)n1 [Example I-351] | 80 | 80 | 90 | 80 | 80 | 80 | 100 | 80 | 80 | 80 | 80 | 80 | 80 |  |  | Post-emergence action against AMARE in % ([9]; 80 g/ha, visual rating about 3 weeks after treatment vs untreated controls (100% = plants have died, 0% = like control plants)): 80%; Post-emergence action against POLCO in % [13]: 80%; Post-emergence action against SETVI in % (Setaria viridis (SETVI) [14]): 80%; Post-emergence action against TRZAS in % ([17]; 80 g/ha): 0%; Post-emergence action against TRZAS in % ([17]; 320 g/ha): 10%
2 | 20 |  |  |  | 10 | COC(=O)COc1nn(-c2nc(F)ccc2F)c(-c2ccc(F)nc2)c1C1CC1 [Example I-300] | 90 |  | 90 | 80 |  |  | 90 |  | 80 | 90 | 90 | 80 | 80 | 90 | 90 | Pre-emergence action against DIGSA in % ([19]; 80 g/ha, visual scoring after about 3 weeks vs untreated controls): 90%; Pre-emergence action against DIGSA in % ([19]; dosage 320 g/ha): 100%; Pre-emergence action against LOLRI in % (Lolium rigidum (LOLRI) [20]; dosage 80 g/ha): 80%; Pre-emergence action against PHBPU in % [21]: 80%; Post-emergence action against ALOMY in % ([24]; 80 g/ha): 80%; Post-emergence action against ALOMY in % ([24]; 320 g/ha): 90%; Post-emergence action against DIGSA in % [25]: 80%; Post-emergence action against ECHCG in % ([10]; dosage 80 g/ha): 80%; Post-emergence action against LOLRI in % (Lolium rigidum (LOLRI) [11]; dosage 80 g/ha): 90%; Post-emergence action against MATIN in % [26]: 80%; Post-emergence action against SETVI in % (Setaria viridis (SETVI) [14]): 80%; Post-emergence action against VIOTR in % (Viola tricolor (VIOTR) [27]; 80 g/ha): 80%; Post-emergence action against VIOTR in % (Viola tricolor (VIOTR) [27]; 320 g/ha): 90%
3 | 10 |  | 10 | 20 | 10 | C[C@@H](Oc1nn(-c2ncccc2Cl)c(-c2ccc(F)nc2)c1Br)C(=O)O [Example I-25] | 100 | 100 | 90 | 90 | 80 | 90 | 100 | 90 |  |  |  |  |  | 100 | 100 | Pre-emergence action against ALOMY ([28]; 80 g/ha): 80%; Pre-emergence action against ALOMY ([28]; 320 g/ha): 90%; Pre-emergence action against AMARE in % ([1]; 80 g/ha): 90%; Pre-emergence action against AVEFA in % (Avena fatua (AVEFA) [2]; 80 g/ha): 90%; Pre-emergence action against VIOTR in % (Viola tricolor (VIOTR) [22]; dosage 80 g/ha): 100%; Post-emergence action against ALOMY in % ([24]; 80 g/ha): 90%; Post-emergence action against AVEFA in % (Avena fatua (AVEFA) [29]): 90%; Post-emergence action against LOLRI in % (Lolium rigidum (LOLRI) [11]; dosage 80 g/ha): 80%; Post-emergence action against VERPE in % ([15]; dosage 80 g/ha): 80%; Post-emergence action against ORYSA in % (Oryza sativa (ORYSA) [16]; 20 g/ha, effect vs untreated controls): 0%; Post-emergence action against ZEAMX in % (crop plant compatibility) (Zea mays (ZEAMX) [18]; 20 g/ha, ZEAMX, effect in comparison to untreated controls): 10%
4 | 0 | 20 | 20 | 0 | 0 | COC(=O)CCOC(=O)COc1nn(-c2ncccc2C(F)(F)F)c(-c2ccc(F)nc2)c1Br [Example I-381] | 90 |  |  |  |  | 80 |  |  |  | 80 | 80 |  | 80 | 90 | 90 | Pre-emergence action against ALOMY ([28]; 320 g/ha): 90%; Pre-emergence action against VIOTR in % (Viola tricolor (VIOTR) [22]; dosage 80 g/ha): 80%; Post-emergence action against ORYSA in % (Oryza sativa (ORYSA) [16]; 320 g/ha, effect in comparison to untreated controls): 20%

Source: US20240041042A1, “1-(PYRIDYL)-5-AZINYLPYRAZOLE DERIVATIVES, AND THEIR USE FOR CONTROL OF UNDESIRED PLANT GROWTH” (Bayer Aktiengesellschaft, priority 2020, published 2024)
